Test results: patent US20130303509A1, “NAMPT INHIBITORS” (AbbVie Inc., priority 2012, published 2013)

These compounds were tested on PC3 cells (assay: NAMPT Cell Proliferation Assay). Details: Homo sapiens, PC-3, 120 h, 5 days incubation, cell viability by Cell Titer Glo.
Type: cell-based
Outline: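 Seeded at 500 cells/well in RPMI with 10% heat-inactivated FBS and left to attach overnight at 37° C, 5% CO2. Compounds were added as 10-fold dilutions […] for 5 days, then viability was read by CellTiter-Glo. IC50s came from sigmoidal fits of percent inhibition.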

| IC50 [nM] | SMILES |
| --- | --- |
| 71.6 | CCOCCC(=O)N1CCC(c2ccc(NC(=O)[C@H]3CCN(c4cccnn4)C3)cc2)CC1 [Example 694, (3S)-N-{4-[1-(3-ethoxypropanoyl)piperidin-4-yl]phenyl}-1-(pyridazin-3-yl)pyrrolidine-3-carboxamide] |
| 734 | CC(C)Cn1cc(-c2ncc(C(=O)N[C@H]3CCN(c4cccnn4)C3)s2)cn1 [Example 742, 2-[1-(2-methylpropyl)-1H-pyrazol-4-yl]-N-[(3S)-1-(pyridazin-3-yl)pyrrolidin-3-yl]-1,3-thiazole-5-carboxamide] |
| 6.46 | O=C(Nc1ccc(O[C@@H]2CCN(C(=O)c3ccc(F)cc3F)C2)cc1)[C@H]1CCN(c2cccnn2)C1 [Example 783, (3S)-N-(4-{[(3R)-1-(2,4-difluorobenzoyl)pyrrolidin-3-yl]oxy}phenyl)-1-(pyridazin-3-yl)pyrrolidine-3-carboxamide] |
| 31.6 | O=C(Nc1ccc(C2CCN(C(=O)c3ccc(Cl)cc3)CC2)cc1)[C@H]1CCN(c2cccnn2)C1 [Example 663, (3S)-N-{4-[1-(4-chlorobenzoyl)piperidin-4-yl]phenyl}-1-(pyridazin-3-yl)pyrrolidine-3-carboxamide] |
| 15.2 | O=C(Nc1ccc(C2CCN(C(=O)c3ccc(Cl)cc3)CC2)cc1)C1CN(c2ccnnc2)C1 [Example 545, N-{4-[1-(4-chlorobenzoyl)piperidin-4-yl]phenyl}-1-(pyridazin-4-yl)azetidine-3-carboxamide] |
| 7.9 | CC(C)(C(=O)N1CCC(c2ccc(NC(=O)C3CN(c4cccnc4)C3)cc2)CC1)N1CCNCC1 [Example 610, N-(4-{1-[2-methyl-2-(piperazin-1-yl)propanoyl]piperidin-4-yl}phenyl)-1-(pyridin-3-yl)azetidine-3-carboxamide] |
| 5.23 | O=C(Nc1ccc(C2CCN(C(=O)C3CCCC3)CC2)cc1)[C@H]1CCN(c2cccnn2)C1 [Example 660, (3S)-N-{4-[1-(cyclopentylcarbonyl)piperidin-4-yl]phenyl}-1-(pyridazin-3-yl)pyrrolidine-3-carboxamide] |
| 7.96 | O=C(Nc1ccc(C2CCN(C(=O)c3cccc(F)c3)CC2)cc1F)C1CN(c2cccnn2)C1 [Example 830, N-{2-fluoro-4-[1-(3-fluorobenzoyl)piperidin-4-yl]phenyl}-1-(pyridazin-3-yl)azetidine-3-carboxamide] |
| 1770 | Cc1ccc(N2CC[C@H](C(=O)Nc3ccc(OC4CCN(C(=O)C(C)(C)C)CC4)cc3)C2)nn1 [Example 838, (3S)—N-(4-{[1-(2,2-dimethylpropanoyl)piperidin-4-yl]oxy}phenyl)-1-(6-methylpyridazin-3-yl)pyrrolidine-3-carboxamide] |
| 9.4 | Cc1ccc(C(=O)N2CCC(c3ccc(NC(=O)[C@H]4CCN(c5cccnn5)C4)cc3)CC2)cc1C [Example 688, (3S)-N-{4-[1-(3,4-dimethylbenzoyl)piperidin-4-yl]phenyl}-1-(pyridazin-3-yl)pyrrolidine-3-carboxamide] |
| 1.19 | O=C(Nc1ccc(O[C@@H]2CCN(C(=O)c3ccc(F)cc3F)C2)cc1)C1CN(c2cccnn2)C1 [Example 509, N-(4-{[(3R)-1-(2,4-difluorobenzoyl)pyrrolidin-3-yl]oxy}phenyl)-1-(pyridazin-3-yl)azetidine-3-carboxamide] |
| 7.24 | COCCn1nc(CC(C)C)cc1-c1ccc(NC(=O)C2CN(c3cccnn3)C2)cc1 [Example 846, N-{4-[1-(2-methoxyethyl)-3-(2-methylpropyl)-1H-pyrazol-5-yl]phenyl}-1-(pyridazin-3-yl)azetidine-3-carboxamide] |
| 115 | CC(C)(C)C(=O)N1CCC(c2ccc(C(=O)NC3CN(c4cccnn4)C3)s2)CC1 [Example 847, 5-[1-(2,2-dimethylpropanoyl)piperidin-4-yl]-N-[1-(pyridazin-3-yl)azetidin-3-yl]thiophene-2-carboxamide] |
| 2.05 | CC(C)(C)OC(=O)N1CCN(C(C)(C)C(=O)N2CCC(c3ccc(NC(=O)C4CN(c5cccnc5)C4)cc3)CC2)CC1 [Example 609, tert-butyl 4-(2-methyl-1-oxo-1-{4-[4-({[1-(pyridin-3-yl)azetidin-3-yl]carbonyl}amino)phenyl]piperidin-1-yl}propan-2-yl)piperazine-1-carboxylate] |
| 4.07 | CC(C)(C)C(=O)N1CC[C@@H](Oc2ccc(NC(=O)[C@H]3CCN(c4cccnn4)C3)cc2)C1 [Example 780, (3S)-N-(4-{[(3R)-1-(2,2-dimethylpropanoyl)pyrrolidin-3-yl]oxy}phenyl)-1-(pyridazin-3-yl)pyrrolidine-3-carboxamide] |
| 68.9 | COCC(=O)N1CCC(c2ccc(NC(=O)[C@H]3CCN(c4cccnn4)C3)cc2)CC1 [Example 735, (3S)-N-{4-[1-(methoxyacetyl)piperidin-4-yl]phenyl}-1-(pyridazin-3-yl)pyrrolidine-3-carboxamide] |
| 0.66 | O=C(Nc1ccc(C2CCN(C(=O)C(F)(F)c3ccccc3)CC2)cc1)C1CN(c2ccnnc2)C1 [Example 558, N-(4-{1-[difluoro(phenyl)acetyl]piperidin-4-yl}phenyl)-1-(pyridazin-4-yl)azetidine-3-carboxamide] |

Further lines, the compound ahead of its results:

| SMILES | IC50 [nM] |
| --- | --- |
| Cc1ncccc1N1CC(C(=O)Nc2ccc(C3CCN(C(=O)[C@@H]4CCC(=O)N4)CC3)cc2)C1 [Example 174, 1-(2-methylpyridin-3-yl)-N-{4-[1-(5-oxo-L-prolyl)piperidin-4-yl]phenyl}azetidine-3-carboxamide] | 1130 |
| O=C(Nc1ccc(C2CCN(C(=O)c3cscn3)CC2)cc1)C1CN(c2cccnn2)C1 [Example 430, 1-(pyridazin-3-yl)-N-{4-[1-(1,3-thiazol-4-ylcarbonyl)piperidin-4-yl]phenyl}azetidine-3-carboxamide] | 1.42 |
| Cc1ncccc1N1CC(C(=O)Nc2ccc(C3CCN(C(=O)C4(C)CC4)CC3)cc2)C1 [Example 170, N-(4-{1-[(1-methylcyclopropyl)carbonyl]piperidin-4-yl}phenyl)-1-(2-methylpyridin-3-yl)azetidine-3-carboxamide] | 65.5 |
| CCCC(=O)N1CCC(c2ccc(NC(=O)C3CN(c4cccnc4C)C3)cc2)CC1 [Example 194, N-[4-(1-butanoylpiperidin-4-yl)phenyl]-1-(2-methylpyridin-3-yl)azetidine-3-carboxamide] | 124 |
| CC(C)CN1CCC(c2ccc(NC(=O)C3CN(c4cccnc4)C3)cc2)CC1 [Example 94, N-{4-[1-(2-methylpropyl)piperidin-4-yl]phenyl}-1-(pyridin-3-yl)azetidine-3-carboxamide] | 65.7 |
| O=C(Nc1ccc(OC2CN(C(=O)C3CCCCC3)C2)cc1)C1CN(c2ccnnc2)C1 [Example 255, N-(4-{[1-(cyclohexylcarbonyl)azetidin-3-yl]oxy}phenyl)-1-(pyridazin-4-yl)azetidine-3-carboxamide] | 24.1 |
| O=C(Nc1ccc(O[C@@H]2CCN(C(=O)C3CCOCC3)C2)cc1)C1CN(c2cccnn2)C1 [Example 487, 1-(pyridazin-3-yl)-N-(4-{[(3R)-1-(tetrahydro-2H-pyran-4-ylcarbonyl)pyrrolidin-3-yl]oxy}phenyl)azetidine-3-carboxamide] | 72 |
| O=C(Nc1ccc(C2CCN(CC3CCCCC3)CC2)cc1)C1CN(c2cccnc2)C1 [Example 86, N-{4-[1-(cyclohexylmethyl)piperidin-4-yl]phenyl}-1-(pyridin-3-yl)azetidine-3-carboxamide] | 69.7 |
| O=C(Nc1ccc(C2CCN(C(=O)Cc3ccc(C(F)(F)F)cc3)CC2)cc1)C1CN(c2cccnn2)C1 [Example 371, 1-(pyridazin-3-yl)-N-[4-(1-{[4-(trifluoromethyl)phenyl]acetyl}piperidin-4-yl)phenyl]azetidine-3-carboxamide] | 8.94 |
| O=C(Nc1ccc(O[C@@H]2CCN(C(=O)c3ccccc3Cl)C2)cc1)C1CN(c2ccnnc2)C1 [Example 442, N-(4-{[(3R)-1-(2-chlorobenzoyl)pyrrolidin-3-yl]oxy}phenyl)-1-(pyridazin-4-yl)azetidine-3-carboxamide] | 6.25 |
| O=C(Nc1ccc(OC2CN(C(=O)c3ccoc3)C2)cc1)C1CN(c2ccnnc2)C1 [Example 209, N-(4-{[1-(furan-3-ylcarbonyl)azetidin-3-yl]oxy}phenyl)-1-(pyridazin-4-yl)azetidine-3-carboxamide] | 81.6 |
| Cc1ccc(C(=O)N2CCC(c3ccc(NC(=O)C4CN(c5cccnn5)C4)cc3)CC2)c(C)c1 [Example 358, N-{4-[1-(2,4-dimethylbenzoyl)piperidin-4-yl]phenyl}-1-(pyridazin-3-yl)azetidine-3-carboxamide] | 1.86 |
| O=C(NCC(=O)N1CCC(c2ccc(NC(=O)C3CN(c4cccnn4)C3)cc2)CC1)c1ccccc1 [Example 413, N-{4-[1-(N-benzoylglycyl)piperidin-4-yl]phenyl}-1-(pyridazin-3-yl)azetidine-3-carboxamide] | 10 |
| O=C(Nc1ccc(O[C@@H]2CCN(C(=O)c3cccs3)C2)cc1)C1CN(c2ccnnc2)C1 [Example 469, 1-(pyridazin-4-yl)-N-(4-{[(3R)-1-(thiophen-2-ylcarbonyl)pyrrolidin-3-yl]oxy}phenyl)azetidine-3-carboxamide] | 8.61 |
| Cc1ccc(C(=O)N2CCC(Oc3ccc(NC(=O)C4CN(c5cccnc5)C4)cc3)CC2)s1 [Example 62, N-[4-({1-[(5-methylthiophen-2-yl)carbonyl]piperidin-4-yl}oxy)phenyl]-1-(pyridin-3-yl)azetidine-3-carboxamide] | 14.2 |
| O=C(Nc1ccc(O[C@@H]2CCN(C(=O)c3cc(F)cc(F)c3)C2)cc1)C1CN(c2ccnnc2)C1 [Example 474, N-(4-{[(3R)-1-(3,5-difluorobenzoyl)pyrrolidin-3-yl]oxy}phenyl)-1-(pyridazin-4-yl)azetidine-3-carboxamide] | 68.5 |
| O=C(Nc1ccc(C2CCN(C(=O)Cc3cccc(C(F)(F)F)c3)CC2)cc1)C1CN(c2cccnn2)C1 [Example 403, 1-(pyridazin-3-yl)-N-[4-(1-{[3-(trifluoromethyl)phenyl]acetyl}piperidin-4-yl)phenyl]azetidine-3-carboxamide] | 4.1 |
